Source: paper PMC8119466, “A screen of FDA-approved drugs identifies inhibitors of protein tyrosine phosphatase 4A3 (PTP4A3 or PRL-3)” (Scientific Reports, 2021)
Structures can show the parent of a compound that is named as a salt. Where two headings read alike, the source gives them in different places.

Columns and labels:
Type in all cases: biochemical
[1] = molecular target: T1, recombinant PRL-1 (Homo sapiens, UniProt Q93096); assay: In vitro phosphatase assay (DiFMUP hydrolysis), PRL-1; note: test concentration or dose not given here
T1 construct: 6xHis (N, cleaved yes); made in house; host or cells: E. coli One Shot BL21 Star
T1 sequence (Q93096 1-173): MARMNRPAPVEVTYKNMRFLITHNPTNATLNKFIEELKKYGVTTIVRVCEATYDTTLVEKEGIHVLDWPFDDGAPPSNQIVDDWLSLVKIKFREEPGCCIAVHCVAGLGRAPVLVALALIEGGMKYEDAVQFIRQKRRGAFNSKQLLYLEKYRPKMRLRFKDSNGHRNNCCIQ

[2] = molecular target: T2, recombinant PRL-2 (Homo sapiens, UniProt Q12974); assay: In vitro phosphatase assay (DiFMUP hydrolysis), PRL-2;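 note: PRL-2 activity read as DiFMUP hydrolysis after 20 min at room temperature with drug, enzyme first pre-reduced at 4 °C for 20 min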
T2 construct: 6xHis (N, cleaved yes); made in house; host or cells: E. coli One Shot BL21 Star
T2 sequence (Q12974 1-167): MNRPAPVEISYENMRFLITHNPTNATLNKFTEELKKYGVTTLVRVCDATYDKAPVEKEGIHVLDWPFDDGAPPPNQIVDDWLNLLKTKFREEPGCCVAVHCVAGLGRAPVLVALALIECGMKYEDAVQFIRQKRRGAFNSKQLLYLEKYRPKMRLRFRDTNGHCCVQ

[3] = molecular target: T3, recombinant PRL-3 (Homo sapiens, UniProt O75365); assay: In vitro phosphatase assay (DiFMUP hydrolysis), PRL-3; note: test concentration or dose not given here
T3 construct: 6xHis (N, cleaved yes); made in house; host or cells: E. coli One Shot BL21 Star
T3 sequence (O75365 whole entry): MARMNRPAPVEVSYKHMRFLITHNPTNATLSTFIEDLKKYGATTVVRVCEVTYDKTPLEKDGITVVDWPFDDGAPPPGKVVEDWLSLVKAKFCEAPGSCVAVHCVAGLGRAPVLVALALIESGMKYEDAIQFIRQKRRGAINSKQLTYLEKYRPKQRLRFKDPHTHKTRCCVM

[4] = FDA-approved drug screen, activity compared to DMSO

Row | SMILES | % Phosphatase Activity (compared to DMSO) PRL-1 [1, 4] [%] | % Phosphatase Activity (compared to DMSO) PRL-2 [2, 4] [%] | % Phosphatase Activity (compared to DMSO) PRL-3 [3, 4] [%] | % Phosphatase Activity (compared to DMSO) PRL-1 [1] [%] | % Phosphatase Activity (compared to DMSO) PRL-2 [2] [%] | % Phosphatase Activity (compared to DMSO) PRL-3 [3] [%]
1 | CN(C(=O)c1ccc(F)cc1C(F)(F)F)C1CCN(c2nnc(-c3ccnn3C)c3ccccc23)CC1 [Taladegib (LY2940680)] | 91 | 107 | 86 | – | – | –
2 | CC1(C)CCC(C)(C)c2cc(NC(=O)c3ccc(C(=O)O)cc3)ccc21 [Tamibarotene] | 93 | 80 | 73 | – | – | –
3 | CC/C(=C(\c1ccccc1)c1ccc(OCCN(C)C)cc1)c1ccccc1 [Tamoxifen Citrate] | 84 | 91 | 95 | – | – | –
4 | CCOc1ccccc1OCCN[C@H](C)Cc1ccc(OC)c(S(N)(=O)=O)c1 [Tamsulosin] | 96 | 107 | 83 | – | – | –
5 | O=C(NS(=O)(=O)c1ccc(Br)s1)c1ccc(Cl)cc1Cl [Tasisulam] | 94 | 87 | 99 | – | – | –
6 | NCCS(=O)(=O)O [Taurine] | 97 | 77 | 94 | – | – | –
7 | CCOC(=O)c1ccc(C#Cc2ccc3c(c2)C(C)(C)CCS3)nc1 [Tazarotene] | 1414 | 1439 | 148 | – | – | –
8 | C[C@]1(Cn2ccnn2)[C@H](C(=O)O)N2C(=O)C[C@H]2S1(=O)=O [Tazobactam] | 102 | 103 | 86 | – | – | –
9 | Cn1nnc(-c2ccc(-c3ccc(N4C[C@H](COP(=O)(O)O)OC4=O)cc3F)cn2)n1 [Tedizolid Phosphate] | 97 | 97 | 87 | – | – | –
10 | CCC[C@H](NC(=O)[C@@H]1[C@H]2CCC[C@H]2CN1C(=O)[C@@H](NC(=O)[C@@H](NC(=O)c1cnccn1)C1CCCCC1)C(C)(C)C)C(=O)C(=O)NC1CC1 [Telaprevir (VX-950)] | 95 | 104 | 92 | – | – | –
11 | Cc1cn([C@@H]2C[C@@H](O)[C@H](CO)O2)c(=O)[nH]c1=O [Telbivudine] | 106 | 89 | 80 | – | – | –
12 | CCCc1nc2c(C)cc(-c3nc4ccccc4n3C)cc2n1Cc1ccc(-c2ccccc2C(=O)O)cc1 [Telmisartan] | 86 | 77 | 92 | – | – | –
13 | CCOC(=O)[C@@H](N)Cc1ccc(-c2cc(O[C@H](c3ccc(Cl)cc3-n3ccc(C)n3)C(F)(F)F)nc(N)n2)cc1.O=C(O)CNC(=O)c1ccccc1 [Telotristat Etiprate (LX 1606 Hippurate)] | 106 | 108 | 97 | – | – | –
14 | CCOC(=O)[C@H](CCc1ccccc1)N[C@H]1CS[C@H](c2cccs2)CN(CC(=O)O)C1=O [Temocapril HCl] | 91 | 93 | 73 | – | – | –
15 | Cn1nnc2c(C(N)=O)ncn2c1=O [Temozolomide] | 87 | 94 | 65 | – | – | –
16 | CO[C@H]1C[C@@H]2CC[C@@H](C)[C@@](O)(O2)C(=O)C(=O)N2CCCC[C@H]2C(=O)O[C@H]([C@H](C)C[C@@H]2CC[C@@H](OC(=O)C(C)(CO)CO)[C@H](OC)C2)CC(=O)[C@H](C)/C=C(\C)[C@@H](O)[C@@H](OC)C(=O)[C@H](C)C[C@H](C)/C=C/C=C/C=C/1C [Temsirolimus (CCI-779, NSC 683864)] | 96 | 111 | 91 | – | – | –
17 | COc1cc([C@@H]2c3cc4c(cc3[C@@H](O[C@@H]3O[C@@H]5CO[C@@H](c6cccs6)O[C@H]5[C@H](O)[C@H]3O)[C@H]3COC(=O)[C@H]23)OCO4)cc(OC)c1O [Teniposide] | 95 | 98 | 97 | – | – | –
18 | CC(C)OC(=O)[C@H](C)N[P@](=O)(CO[C@H](C)Cn1cnc2c(N)ncnc21)Oc1ccccc1 [Tenofovir Alafenamide (GS-7340)] | – | – | – | 94 | 74 | 91
19 | CC(C)OC(=O)OCOP(=O)(CO[C@H](C)Cn1cnc2c(N)ncnc21)OCOC(=O)OC(C)C [Tenofovir Disoproxil Fumarate] | 95 | 93 | 82 | – | – | –
20 | C[C@H](Cn1cnc2c(N)ncnc21)OCP(=O)(O)O [Tenofovir] | 103 | 120 | 100 | – | – | –
21 | CN1C(C(=O)Nc2ccccn2)=C(O)c2sccc2S1(=O)=O [Tenoxicam] | 92 | 75 | 71 | – | – | –
22 | COc1cc2nc(N3CCN(C(=O)C4CCCO4)CC3)nc(N)c2cc1OC (stereo not drawn) [Terazosin HCl] | 510 | 644 | 324 | – | – | –
23 | COc1cc2nc(N3CCN(C(=O)C4CCCO4)CC3)nc(N)c2cc1OC (stereo not drawn) [Terazosin] | 595 | 423 | 448 | – | – | –
24 | CN(C/C=C/C#CC(C)(C)C)Cc1cccc2ccccc12 [Terbinafine HCl] | 100 | 108 | 86 | – | – | –
25 | CC(C)(C)NCC(O)c1cc(O)cc(O)c1 (stereo not drawn) [Terbutaline Sulfate] | 95 | 97 | 101 | – | – | –
26 | CC(C)(C)c1ccc(C(O)CCCN2CCC(C(O)(c3ccccc3)c3ccccc3)CC2)cc1 (stereo not drawn) [Terfenadine] | 96 | 100 | 91 | – | – | –
27 | C/C(O)=C(\C#N)C(=O)Nc1ccc(C(F)(F)F)cc1 [Teriflunomide] | 95 | 98 | 84 | – | – | –
28 | CC1(O)CCC(C(C)(C)O)CC1.O (stereo not drawn) [Terpin (hydrate)] | 88 | 92 | 80 | – | – | –
29 | COc1cc2c(cc1OC)C1CC(=O)C(CC(C)C)CN1CC2 (stereo not drawn) [Tetrabenazine (Xenazine)] | 81 | 89 | 84 | – | – | –
